From ChEMBL document CHEMBL2311387, “Dose-dependent interaction of trans-resveratrol with biomembranes: effects on antioxidant property” (J Med Chem, 2013)
The source made the active and inactive calls. The rule behind the calls is not given here.

Columns and labels:
[1] = Binding affinity to planer lipid bilayer assessed as reduction in diameter of semicircle pattern at up to 60 uM by admittance spectroscopic analysis; format: physicochemical
[2] = test system: Radical scavenging activity; test: Antioxidant activity assessed as DPPH free radical scavenging activity at <100 uM after 45 mins by UV-visible spectrophotometric analysis relative to vitamin C; format: functional
[3] = Antioxidant activity in planer lipid bilayer membrane assessed as inhibition of DPPH-induced reduction in diameter of semicircle at 50 to 100 uM by admittance spectroscopic analysis; format: functional, cell membranes
[4] = Antioxidant activity in planer lipid bilayer membrane assessed as reduction in 100 uM DPPH-induced charge transfer resistance at 50 uM by admittance spectroscopic analysis; format: functional, cell membranes; parameters: scale not given: the % may be the effect or the level left
[5] = Binding affinity to planer lipid bilayer assessed as change in diameter of semicircle pattern by admittance spectroscopic analysis; format: physicochemical
[6] = Induction of destruction morphology in human erythrocytes up to 100 uM after 1 hr by cold field emission scanning electron microscopic analysis; format: cell-based; details: erythrocyte
[7] = Induction of blebbing morphology in human erythrocytes up to 100 uM after 1 hr by cold field emission scanning electron microscopic analysis; format: cell-based; details: erythrocyte
[8] = Binding affinity to curcumin encapsulated liposomes assessed as curcumin release from unilamellar vesicles after 20 mins by NMR spectroscopic analysis
[9] = Binding affinity to planer lipid bilayer assessed as increase in anodic current by cyclic voltammetric analysis; format: physicochemical
[10] = Binding affinity to planer lipid bilayer assessed as increase in cathodic current by cyclic voltammetric analysis; format: physicochemical
[11] = Antioxidant activity in planer lipid bilayer membrane assessed as reduction in 50 uM DPPH-induced charge transfer resistance at 50 uM by admittance spectroscopic analysis; format: functional, cell membranes; parameters: scale not given: the % may be the effect or the level left
[12] = Induction of morphological changes in human erythrocytes at => 60 uM after 1 hr by cold field emission scanning electron microscopic analysis; format: cell-based; details: erythrocyte
[13] = Antioxidant activity in planer lipid bilayer membrane assessed as reduction in 50 uM DPPH-induced charge transfer resistance at 100 uM by admittance spectroscopic analysis; format: functional, cell membranes; parameters: scale not given: the % may be the effect or the level left
[14] = Antioxidant activity in planer lipid bilayer membrane assessed as inhibition of DPPH-induced reduction in height of semicircle at 50 to 100 uM by admittance spectroscopic analysis; format: functional, cell membranes
[15] = Induction of budding morphology in human erythrocytes up to 100 uM after 1 hr by cold field emission scanning electron microscopic analysis; format: cell-based; details: erythrocyte
[16] = Binding affinity to curcumin encapsulated liposomes assessed as curcumin release from unilamellar vesicles at 100 uM after 20 mins NMR spectroscopic analysis
[17] = Antioxidant activity in planer lipid bilayer membrane assessed as reduction in 100 uM DPPH-induced charge transfer resistance at 100 uM by admittance spectroscopic analysis; format: functional, cell membranes; parameters: scale not given: the % may be the effect or the level left
[18] = Binding affinity to planer lipid bilayer assessed as reduction in charge transfer resistance by admittance spectroscopic analysis; format: physicochemical
MCF7 = test: Cytotoxicity against human MCF7 cells at 100 uM after 24 hrs by MTS assay; format: cell-based; details: mcf7, 24 h
[19] = test system: Radical scavenging activity; test: Antioxidant activity assessed as DPPH free radical scavenging activity at >100 uM after 45 mins by UV-visible spectrophotometric analysis relative to vitamin C; format: functional
[20] = Binding affinity to planer lipid bilayer assessed as change in height of semicircle pattern by admittance spectroscopic analysis; format: physicochemical

Which Activity [1] does the source give for Oc1ccc(/C=C/c2cc(O)cc(O)c2)cc1 [RESVERATROL] here?
Its Activity is “Active”.

What about the Activity [2] of the same compound?
The Activity was “Active”.

And the inhibition [3]?
Its inhibition is “Active”.

What about the Activity [4] of the same compound?
The Activity was 22%.

And the Activity [5]?
Its Activity is “Dose-dependent effect”.

What about the Activity [6] of the same compound?
Its Activity is “Toxic”.

What about the Activity [7] of the same compound?
Its Activity is “Toxic”.

What about the Activity [8] of the same compound?
Its Activity is “Dose-dependent effect”.

What about the Activity [9] of the same compound?
Its Activity is “Dose-dependent effect”.

What about the Activity [10] of the same compound?
The Activity was “Dose-dependent effect”.

What about the Activity [11] of the same compound?
Its Activity is 19.5%.

And the Activity [12]?
Its Activity is “Non-toxic”.

And the Activity [13]?
Its Activity is 7.7%.

What about the inhibition [14] of the same compound?
The inhibition was “Active”.

What about the Activity [15] of the same compound?
Its Activity is “Toxic”.

What about the Activity [16] of the same compound?
The Activity was 17%.

And the Activity [17]?
Its Activity is 10.9%.

And the Activity [18]?
Its Activity is “Active”.

And the Activity (MCF7)?
The Activity was 50%.

What about the Activity [19] of the same compound?
Its Activity is “Active”.

What about the Activity [20] of the same compound?
The Activity was “Dose-dependent effect”.
